Experimental data taken from doi:10.1101/2023.12.06.570349v1 (biorxiv, 2023).
Like-named read-outs stand apart in the source and are kept apart here.

What was measured:
[1] = target: T1, H3R-445 (Homo sapiens, UniProt Q9Y5N1); assay: cell-based; set-up: species or system HEK293-EPAC stably expressing H3R isoform; details: for Emax: HEK293-EPAC stably expressing H3R isoform, read-out: H3R-445 α
[2] = target: T2, H3R-365 (Homo sapiens, UniProt Q9Y5N1); assay: cell-based; set-up: species or system HEK293-EPAC stably expressing H3R isoform; details: for Emax: HEK293-EPAC stably expressing H3R isoform, read-out: H3R-365 α
[3] = target: T3, H3R-415 (Homo sapiens, UniProt Q9Y5N1); assay: cell-based; set-up: species or system HEK293-EPAC stably expressing H3R isoform; details: for Emax: HEK293-EPAC stably expressing H3R isoform, read-out: H3R-415 α
[4] = target: T4, H3R-373 (Homo sapiens, UniProt Q9Y5N1, INS445KMKKKTCL); set-up: species or system HEK293-EPAC stably expressing H3R isoform; details: agonist
[5] = target: T2, H3R-365; assay: cell-based; set-up: species or system HEK293-EPAC stably expressing H3R isoform; details: for H3R-365 α: relative to histamine, agonist; for Emax: HEK293-EPAC stably expressing H3R isoform, read-out: H3R-365 α
[6] = target: T5, H3R-413 (Homo sapiens, UniProt Q9Y5N1, DEL274-305); assay: cell-based; set-up: species or system HEK293-EPAC stably expressing H3R isoform
[7] = target: T1, H3R-445; assay: cell-based; set-up: species or system HEK293-EPAC stably expressing H3R isoform; details: for H3R-445 α: relative to histamine, agonist; for Emax: HEK293-EPAC stably expressing H3R isoform, read-out: H3R-445 α
[8] = target: T3, H3R-415; assay: cell-based; set-up: species or system HEK293-EPAC stably expressing H3R isoform; details: for H3R-415 α: relative to histamine, agonist; for Emax: HEK293-EPAC stably expressing H3R isoform, read-out: H3R-415 α
[9] = target: T4, H3R-373; assay: cell-based; set-up: species or system HEK293-EPAC stably expressing H3R isoform; details: for H3R-373 α: relative to histamine, agonist; for Emax: HEK293-EPAC stably expressing H3R isoform, read-out: H3R-373 α
[10] = target: T6, H3R-453 (Homo sapiens, UniProt Q9Y5N1); assay: cell-based; set-up: species or system HEK293-EPAC stably expressing H3R isoform; details: for H3R-453 α: relative to histamine, agonist; for Emax: HEK293-EPAC stably expressing H3R isoform, read-out: H3R-453 α
[11] = target: T5, H3R-413; assay: cell-based; set-up: species or system HEK293-EPAC stably expressing H3R isoform; details: for H3R-413 α: relative to histamine, agonist; for Emax: HEK293-EPAC stably expressing H3R isoform, read-out: H3R-413 α
[12] = target: T2, H3R-365; assay: cell-based; set-up: species or system HEK293-EPAC stably expressing H3R isoform
[13] = target: T5, H3R-413; assay: biochemical
[14] = target: T3, H3R-415; assay: cell-based; set-up: species or system HEK293-EPAC stably expressing H3R isoform
[15] = target: T4, H3R-373
[16] = target: T4, H3R-373; set-up: species or system HEK293-EPAC stably expressing H3R isoform; details: inverse agonism, constitutive signaling; antagonist
[17] = target: T2, H3R-365; assay: cell-based; details: HEK293-EPAC stably expressing H3R isoform, read-out: H3R-365 α
[18] = target: T6, H3R-453; assay: cell-based; details: HEK293-EPAC stably expressing H3R isoform, read-out: H3R-453 α
[19] = target: T1, H3R-445; assay: cell-based; details: HEK293-EPAC stably expressing H3R isoform, read-out: H3R-445 α
[20] = target: T3, H3R-415; assay: cell-based; details: HEK293-EPAC stably expressing H3R isoform, read-out: H3R-415 α
[21] = target: T1, H3R-445; assay: biochemical
[22] = target: T3, H3R-415; assay: biochemical
[23] = target: T2, H3R-365; assay: biochemical
[24] = target: T1, H3R-445; assay: cell-based; set-up: species or system HEK293-EPAC stably expressing H3R isoform
[25] = target: T6, H3R-453; set-up: species or system HEK293-EPAC stably expressing H3R isoform; details: agonist
[26] = target: T1, H3R-445; assay: cell-based; set-up: species or system HEK293-EPAC stably expressing H3R isoform; remark: listed apart in the source
[27] = target: T3, H3R-415; assay: cell-based; set-up: species or system HEK293-EPAC stably expressing H3R isoform; remark: listed apart in the source
[28] = inverse agonism, pitolisant = -1, antagonist

Structure (SMILES)	H3R-373 pEC50 [4]	EC50 [6]	Ki [13]	Ki [15]	Emax [5]	Emax [7]	Emax [8]	Emax [9]	Emax [10]	Emax [11]	also measured
C[C@@H]1CCCN1CCc1cc2cc(-c3ccc(C#N)cc3)ccc2o1 [ABT-239, 4-[2-[2-[(2R)-2-methylpyrrolidin-1-yl]ethyl]-1-benzofuran-5-yl]benzonitrile]	–	–	–	–	–	–	–	–	–	–	Emax [1]: -100 ± 20%; Emax [2]: -110%; Emax [3]: -50 ± 30%
c1nc(CC2CCNCC2)c[nH]1 [Immepip]	10.1 ± 0.2 M	0.2 nM	–	–	–	–	–	–	–	–	H3R-365 α [5]: 1.1 ± 0.1%; H3R-445 α [7]: 1.0 ± 0.0%; H3R-415 α [8]: 0.9 ± 0.1%; H3R-373 α [9]: 0.8 ± 0.2%; H3R-453 α [10]: 0.9 ± 0.1%; H3R-413 α [11]: 1.0 ± 0.0%
CN1CCC(Cc2c[nH]cn2)CC1 [Methimepip]	–	0.631 nM	–	–	–	–	–	–	–	–	H3R-365 α [5]: 0.8 ± 0.4%; H3R-445 α [7]: 1.0 ± 0.2%; H3R-415 α [8]: 0.8 ± 0.1%; H3R-373 α [9]: 0.8 ± 0.1%; H3R-453 α [10]: 1.1 ± 0.2%; H3R-413 α [11]: 1.0 ± 0.1%
C[C@@H](N)Cc1cnc[nH]1 [RAMH, (2R)-1-(3H-imidazol-4-yl)propan-2-amine]	–	–	–	–	–	–	–	–	–	–	Emax [17]: 100 ± 20%; Emax [18]: 140 ± 10%; Emax [19]: 100%; Emax [20]: 110 ± 40%
O=C(c1ccc(CN2CCOCC2)cc1)N1CCN(C2CC2)CC1 [bavisant, (4-Cyclopropyl-piperazin-1-yl)-(4-morpholin-4-ylmethyl-phenyl)-methanone]	–	–	2.51 nM	79.4 nM	–	–	–	–	–	–	EC50 [12]: 3.98 nM; EC50 [14]: 0.794 nM; H3R-445 α [1, 28]: -1.0 ± 0,3%; H3R-365 α [2, 28]: -1.0 ± 0.0%; EC50 [26]: 1 nM; H3R-415 α [3, 28]: -0.9 ± 0.0%
N=C(NCc1ccc(Cl)cc1)SCCCc1c[nH]cn1 [clobenpropit, N’-[(4-chlorophenyl)methyl]-1-[3-(3H-imidazol-4-yl)propylsulfanyl]methanimidamide]	–	–	–	–	–	–	–	–	–	–	Emax [1]: -100 ± 30%; Emax [2]: -80 ± 10%; Emax [3]: -80%
CN(C)CCCCCc1c[nH]cn1 [dimethyl-impentamine, 5-(3H-imidazol-4-yl)-N,N-dimethylpentan-1-amine]	7.9 ± 0.4 M	79.4 nM	31.6 nM	20 nM	100 ± 20%	60 ± 20%	40 ± 10%	70 ± 10%	–	50 ± 20%	Ki [21]: 25.1 nM; Ki [22]: 31.6 nM; Ki [23]: 20 nM
NCCCCc1c[nH]cn1 [imbutamine, 4-(3H-imidazol-4-yl)butan-1-amine]	9.5 ± 0.4 M	–	1.58 nM	0.398 nM	90 ± 30%	100 ± 10%	80 ± 10%	80 ± 10%	120 ± 30%	90%	–
N=C(N)SCCc1cnc[nH]1 [imetit, 2-(3H-imidazol-4-yl)ethylsulfanylmethanimidamide]	–	0.316 nM	0.631 nM	0.126 nM	110 ± 20%	90 ± 10%	70%	80 ± 30%	100 ± 30%	100%	–
c1cc(Cc2cnc[nH]2)ccn1 [immethridine, 4-(3H-imidazol-4-ylmethyl)pyridine]	10.1 ± 0.7 M	–	0.398 nM	0.1 nM	110 ± 50%	90 ± 20%	70 ± 10%	90 ± 10%	110 ± 40%	100 ± 10%	–
c1ccc(COCCCc2c[nH]cn2)cc1 [proxyfan, 4-[3-(phenylmethoxy)propyl]-3H-imidazole]	8.0 ± 0.0 M	31.6 nM	5.01 nM	1 nM	100 ± 10%	90 ± 10%	70 ± 10%	80 ± 10%	100 ± 20%	90 ± 10%	EC50 [27]: 15.8 nM; EC50 [24]: 7.94 nM; H3R-453 pEC50 [25]: 7.2 ± 0.4 M
S=C(NC1CCCCC1)N1CCC(c2c[nH]cn2)CC1 [thioperamide, N-cyclohexyl-4-(3H-imidazol-4-yl)piperidine-1-carbothioamide]	–	–	–	–	–	–	–	–	–	–	Emax [1]: -90 ± 10%; Emax [2]: -100%; Emax [3]: -80 ± 80%

Second part, led by results:

H3R-373 pEC50 [4]	EC50 [6]	Ki [13]	Ki [15]	Emax [5]	Emax [7]	Emax [8]	Emax [9]	Emax [10]	Emax [11]	Structure (SMILES)	also measured
–	–	5.01 nM	126 nM	–	–	–	–	–	–	CCNC(=O)C1CC(F)(c2ccc(CN3CCCC3)c(F)c2)C1 (stereo not shown) [PF-3654746, N-ethyl-3-fluoro-3-[3-fluoro-4-(pyrrolidin-1-ylmethyl)phenyl]cyclobutane-1-carboxamide]	EC50 [12]: 1 nM; EC50 [14]: 0.501 nM; Emax [1]: -120 ± 40%; Emax [2]: -100 ± 10%; H3R-373 pEC50 [16]: 9.1 ± 0.4 M; Emax [3]: -110 ± 30%
9.0 ± 0.8 M	–	1.26 nM	0.316 nM	70 ± 20%	80 ± 20%	50 ± 20%	70 ± 30%	90 ± 40%	80 ± 10%	N=C(N)SCCCc1cnc[nH]1 [VUF8328, 3-(1H-imidazol-5-yl)propyl carbamimidothioate]	Ki [21]: 1.26 nM; Ki [22]: 1.58 nM; Ki [23]: 0.794 nM
–	–	2 nM	0.398 nM	70 ± 20%	90%	50 ± 10%	60 ± 20%	90 ± 30%	80 ± 20%	CCCNC1CN(c2ccnc(N)n2)C1 [VUF16839, 4-(3-(Propylamino)azetidin-1-yl)pyrimidin-2-amine]	EC50 [24]: 1 nM; H3R-453 pEC50 [25]: 8.0 ± 0.1 M
